Laboratory results reported in US8748428B2, “Use of a PKC inhibitor” (Novartis AG, priority 2010, dated 2014).

Assays:
Format in all cases: cell-based
OCI-Ly3 cells = test: Growth inhibition, CellTiter-Glo, 5 days; conditions: Homo sapiens, OCI-Ly3, 120 h; ABC DLBCL, CARD11 mutation; 5 days treatment; read-out: growth inhibitory IC50, OCI-Ly3
Source text: (§1) Two pharmacological PKC inhibitors: (i) the pan-PKC inhibitor, Sotrastaurin, also known as AEB071, and (ii) the PKCa/b-selective compound, 3-[2-chloro-7-[(dimethylamino)methyl]-1-naphthalenyl]-4-[7-[2-(2-methoxyethoxy)ethoxy]-1H-indol-3-yl]-1H-pyrrole-2,5-dione (referred to herein as “Compound B”), were used to evaluate the proliferation of several diffuse large B cell lymphoma (DLBCL) lines. The IKKb-selective inhibitors N-(6-chloro-7-methoxy-9H-β-carbolin-8-yl)-2-methylnicotinamide (referred to herein as “MLN120B”) and N-[(2R,6R)-2,6-dimethyl-4-piperidinyl]-4-(7-fluoro-1H-indol-3-yl)-2-pyrimidinamine (referred to herein as “Compound A”) were used as control compounds. ABC DLBCL cell lines (OCI-LY3, OCI-LY10, HBL1, U2932, TMD8, Su-DHL2) and GC DLBCL cell lines (Su-DHL4, DB, K-422) were treated for 5 days with PKC inhibitors (A) Sotrastaurin (AEB071) or (B) Compound B; IKKb inhibitors (C) MLN120B or (D) Compound A. Cells were plated in 96-well plates (Corning, #3358) at 5000 cells/well in 100 μL and treated with DMSO or inhibitors at concentrations ranging from 160 nM to 20 μM (2-fold dilutions). Following 5 days of treatment, cells were lysed with CellTiter-Glo® Luminescent Cell Viability Assay reagent (Promega, G7573), lysates were transferred to opaque 96-well plates (Corning, #3971), and luminescence signal was read using the Envision. Percent growth was calculated relative to median DMSO signal.
(§2) While all ABC DLBCL cell lines were sensitive to IKK inhibitors, their response to PKC inhibitors varied strongly (Table 1A below). The cell lines that are insensitive to PKC inhibitors, OCI-Ly3 and Su-DHL2, have reported mutations in CARD11 and A20, respectively. […] The fact that these oncogenic lesions are thought to function downstream of PKCβ in CBM-NFkB signaling provides a molecular rationale for their insensitivity. […] See, Compagno, M., et al, “Mutations of multiple genes cause deregulation of NF-κB in diffuse large B-cell lymphoma” Nature, 459 (7247), 717-722 (2009)). […] Tables 1A and 1B below show the growth inhibitory IC50 values, which were determined by measuring ATP concentration (Cell Titer Glo), for the indicated compounds in the indicated cell lines. IC50 values were determined as the concentration of compound that leads to 50% reduction of cell growth.

HBL1 cells = test: Growth inhibition, CellTiter-Glo, 5 days; conditions: HBL1, 120 h; ABC DLBCL, CD79B mutation; 5 days treatment; read-out: growth inhibitory IC50, HBL1
Source text: as §1, §2

Su-DHL4 cells = test: Growth inhibition, CellTiter-Glo, 5 days; conditions: Homo sapiens, SU-DHL-4, 120 h; GC DLBCL, no NFkB mutation; 5 days treatment; read-out: growth inhibitory IC50, Su-DHL4
Source text: as §1, §2

Su-DHL2 cells = test: Growth inhibition, CellTiter-Glo, 5 days; conditions: Homo sapiens, SU-DHL-2, 120 h; ABC DLBCL, A20 mutation; 5 days treatment; read-out: growth inhibitory IC50, Su-DHL2
Source text: as §1, §2

DB cells = test: Growth inhibition, CellTiter-Glo, 5 days; conditions: Homo sapiens, 120 h, GC DLBCL, no NFkB mutation, 5 days treatment, read-out: growth inhibitory IC50, DB
Source text: as §1, §2

U2392 cells = test: Growth inhibition, CellTiter-Glo, 5 days; conditions: 120 h; ABC DLBCL, TAK1 mutation; 5 days treatment; read-out: growth inhibitory IC50, U2392
Source text: as §1, §2

TMD8 cells = test: Growth inhibition, CellTiter-Glo, 5 days; conditions: Homo sapiens, TMD8, 120 h; ABC DLBCL, CD79B mutation; 5 days treatment; read-out: growth inhibitory IC50, TMD8
Source text: as §1, §2

OCI-Ly10 cells = test: Growth inhibition, CellTiter-Glo, 5 days; conditions: Homo sapiens, OCI-Ly10, 120 h; ABC DLBCL, CD79A mutation; 5 days treatment; read-out: growth inhibitory IC50, OCI-Ly10
Source text: as §1, §2

K422 cells = test: Growth inhibition, CellTiter-Glo, 5 days; conditions: 120 h; GC DLBCL, no NFkB mutation; 5 days treatment; read-out: growth inhibitory IC50, K422
Source text: as §1, §2

[1] = test system: IL-6 secretion in TMD8 cells; test: IL-6 secretion (Quantikine ELISA); conditions: Homo sapiens; TMD8, ELISA of supernatant, 48 hours
Protocol: (§3) The fact that IL-6 is secreted from cells allowed for monitoring of IL-6 levels in cell supernatants. IL-6 secretion was determined by Quantikine ELISA using supernatant from treated cells. Cells were washed and plated at 100,000 cells/well in 100 ul in fresh media in round-bottom 96-well plates (Corning, #3358). The cells were then treated with DMSO or inhibitors at concentrations ranging from 80 nM to 10 uM (2-fold dilutions), and incubated at 37° C. for 48 hours. Then the conditioned media was transferred to v-bottom 96-well plates (Nunc, #12565436). The level of IL-6 secretion was determined by the Quantkine colorimetric ELISA kit from (R & D Systems, #D6050), according to the manufacturer's instructions. For the IL-6 ELISA, the conditioned media was diluted 1:2 with fresh media (except ion: the HBL1 conditioned media was not diluted, it was used 1:1). In FIG. 2, IL-6 secretion for each dose is expressed as a percentage of IL-6 secretion from cells treated with DMSO.

[2] = test system: IL-6 secretion in HBL1 cells; test: IL-6 secretion (Quantikine ELISA); conditions: HBL1, ELISA of supernatant, 48 hours
Protocol: as §3

IL-6 mRNA in TMD8 cells = test: IL-6 mRNA expression (Taqman); conditions: TMD8, 24 hours, 10 nM to 10 uM
Source text: Constitutive activation of the NFkB pathway is a molecular hallmark of ABC DLBCL cells and is required for their proliferation and survival. See Davis, R. E., et al., J Exp Med, 194(12), 1861-1874 (2001). To confirm that the growth inhibitory effect in response to PKC inhibition is mediated through modulation of NFkB pathway signaling, the expression of NFkB pathway genes were monitored in response to AEB071 treatment. The NFkB-pathway-induced cytokine IL-6 was used as a marker to study NFkB pathway modulation by PKC inhibitors. See Lam, L. T., et al., Blood 111(7):3701-13 (2008). To measure IL-6 mRNA levels, cells were plated in […] plates in 2 ml media at 2M/ml, then treated with DMSO or inhibitors from 10 nM to 10 uM (4-fold dilutions) for 24 hours. Total RNA was harvested using the RNeasy kit (Qiagen, #74104) and cDNA was made from 1 μg total RNA using the High Capacity cDNA kit (ABI, #4368814), according to manufacturer's protocols. Taqman probes (ABI: IL-6, Hs00174131_m1) were used with Gene Expression Master Mix (ABI, 4369510) to determine the amount of mRNA expression for IL-6 relative to an endogenous control gene (ABI: TBP, 4326322E) and the DMSO control using the delta-delta Ct method.

| Compound | IC50 (OCI-Ly3 cells) [µM] | IC50 (Su-DHL4 cells) [µM] | IC50 (Su-DHL2 cells) [µM] | IC50 (OCI-Ly10 cells) [µM] | IC50 [1] [µM] | IC50 [2] [µM] | IC50 (HBL1 cells) [µM] | IC50 (DB cells) [µM] | IC50 (U2392 cells) [µM] | IC50 (TMD8 cells) [µM] | IC50 (K422 cells) [µM] | IL-6 mRNA expression (IL-6 mRNA in TMD8 cells) |
| --- | --- | --- | --- | --- | --- | --- | --- | --- | --- | --- | --- | --- |
| O=C1NC(=O)C(c2c[nH]c3ccccc23)=C1c1nc(N2CCNCC2)nc2ccccc12 [Compound D, 3-(1H-Indol-3-yl)-4-[2-(piperazin-1-yl)quinazolin-4-yl]pyrrole-2,5-dione] | 15 | 15 | > 20 |  |  |  | 0.2 | > 20 | 3 | 0.2 |  |  |
| CN(C)C[C@@H]1CCn2cc(c3ccccc32)C2=C(C(=O)NC2=O)c2cn(c3ccccc23)CCO1 [LY333531, (9S)-9-[(dimethylamino)methyl]-6,7,10,11-tetrahydro-9H,18H-5, 21:12,17-dimethenodibenzo[e,k]pyrrolo[3,4-h][1,4,13]oxadiazacyclohexadecine-18,20(19H)-dione] |  |  |  |  |  |  |  |  |  |  |  | reduced IL-6 mRNA expression in a dose-dependent manner |

More lines, main results first:

| IC50 (OCI-Ly3 cells) [µM] | IC50 (Su-DHL4 cells) [µM] | IC50 (Su-DHL2 cells) [µM] | IC50 (OCI-Ly10 cells) [µM] | IC50 [1] [µM] | IC50 [2] [µM] | Compound | IC50 (HBL1 cells) [µM] | IC50 (DB cells) [µM] | IC50 (U2392 cells) [µM] | IC50 (TMD8 cells) [µM] | IC50 (K422 cells) [µM] | IL-6 mRNA expression (IL-6 mRNA in TMD8 cells) |
| --- | --- | --- | --- | --- | --- | --- | --- | --- | --- | --- | --- | --- |
| 0.4 | 10 | 15 | 0.3 |  |  | C[C@@H]1CC(Nc2nccc(-c3c[nH]c4c(F)cccc34)n2)C[C@@H](C)N1 (stereo partly drawn) [Compound A, N-[(2R,6R)-2,6-dimethyl-4-piperidinyl]-4-(7-fluoro-1H-indol-3-yl)-2-pyrimidinamine] | 2.5 | > 20 | 2.5 | 0.2 | 10 |  |
| > 20 | 7.5 | 15 | 0.5 | < 0.2 | < 0.2 | COCCOCCOc1cccc2c(C3=C(c4c(Cl)ccc5ccc(CN(C)C)cc45)C(=O)NC3=O)c[nH]c12 [Compound B, 3-[2-chloro-7-[(dimethylamino)methyl]-1-naphthalenyl]-4-[7-[2-(2-methoxyethoxy)ethoxy]-1H-indol-3-yl]-1H-Pyrrole-2,5-dione] | 0.5 | > 20 | 10 | 0.2 | 11 | reduced IL-6 mRNA expression in a dose-dependent manner |
| 12 | > 20 | 10 | 10 |  |  | COc1c(Cl)cc2c([nH]c3cnccc32)c1NC(=O)c1cccnc1C [MLN120B, N-(6-chloro-7-methoxy-9H-β-carbolin-8-yl)-2-methylnicotinamide] | 10 | > 40 | 10 | 10 | > 40 |  |
